# Columns and labels:
# Test in all cases: relative viability (nuclei count vs DMSO), 5 days (fraction); higher = more cells survive
# [1] = compound: CN(C)CC1=CC(=CC=C1)N=C(C2=CC=CC=C2)C3=C(NC4=C3C=CC(=C4)C(=O)N(C)C)O + C[C@@H](Oc1cc(-c2cnn(C3CCNCC3)c2)cnc1N)c1c(Cl)ccc(F)c1Cl [Crizotinib] (partner 1 µM)
# In short: (§1)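 Medians of duplicate plates are given as relative viability. That measure is the nuclei count in treated wells divided by the count in vehicle wells. Counts were taken on 4× images of lung cancer cell lines in 1536-well plates, 5 days after pin-tool dosing the day after seeding with one drug alone or a fixed anchor-drug dose plus five library-drug doses (not always all listed) in √10 steps.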
# [2] = compound: CN(C)CC1=CC(=CC=C1)N=C(C2=CC=CC=C2)C3=C(NC4=C3C=CC(=C4)C(=O)N(C)C)O + C[C@]1(O)C[C@@H](c2nc(-c3ccc4ccc(-c5ccccc5)nc4c3)c3c(N)nccn32)C1 [Linsitinib] (partner 1 µM)
# In short: as §1
# [3] = compound: CN(C)CC1=CC(=CC=C1)N=C(C2=CC=CC=C2)C3=C(NC4=C3C=CC(=C4)C(=O)N(C)C)O + COc1cccc2cc(-c3nc([C@H]4CC[C@H](C(=O)O)CC4)n4ncnc(N)c34)[nH]c12 [OSI-027] (partner 0.5 µM)
# In short: as §1
# [4] = compound: CN(C)CC1=CC(=CC=C1)N=C(C2=CC=CC=C2)C3=C(NC4=C3C=CC(=C4)C(=O)N(C)C)O + Cc1cc(Nc2cc(N3CCN(C)CC3)nc(Sc3ccc(NC(=O)C4CC4)cc3)n2)n[nH]1 [Tozasertib] (partner 0.1 µM)
# In short: as §1
Cell Line,relative viability ([1]; first compound 0.08 µM),relative viability ([1]; first compound 0.253 µM),relative viability ([1]; first compound 0.8 µM),relative viability ([1]; first compound 2.53 µM),relative viability ([1]; first compound 8 µM),relative viability ([2]; first compound 0.08 µM),relative viability ([2]; first compound 0.253 µM),relative viability ([2]; first compound 0.8 µM),relative viability ([2]; first compound 2.53 µM),relative viability ([2]; first compound 8 µM),relative viability ([3]; first compound 0.08 µM),relative viability ([3]; first compound 0.253 µM),relative viability ([3]; first compound 0.8 µM),relative viability ([3]; first compound 2.53 µM),relative viability ([3]; first compound 8 µM),relative viability ([4]; first compound 0.08 µM),relative viability ([4]; first compound 0.253 µM),relative viability ([4]; first compound 0.8 µM),relative viability ([4]; first compound 2.53 µM),relative viability ([4]; first compound 8 µM)
NCI-H2347,0.734,0.727,0.73,0.703,0.58,1.04,0.995,0.994,1.03,1.05,0.444,0.525,0.407,0.471,0.703,0.615,0.522,0.522,0.56,0.603
NCI-H2228,0.406,0.505,0.442,0.432,0.361,0.66,0.541,1.12,0.63,0.582,0.638,0.736,0.615,0.492,0.419,0.221,0.332,0.265,0.228,0.232
NCI-H1299,0.92,0.93,0.988,0.834,0.939,1.05,0.969,1.02,0.946,0.972,,,,,,,,,,
NCI-H1563,0.872,0.871,0.833,0.846,0.771,1.19,1.28,1.15,1.08,1.14,0.723,0.811,0.775,0.766,0.708,,,,,
NCI-H647,1.01,0.987,1.08,0.727,0.671,1.29,1.11,0.858,1.12,0.795,0.711,0.772,0.754,0.461,0.539,0.262,0.362,0.263,0.356,0.235
NCI-H838,0.825,0.784,0.861,0.659,0.755,1.05,0.96,0.981,0.88,0.826,0.347,0.469,0.513,0.417,0.354,0.276,0.27,0.274,0.264,0.268
NCI-H727,0.772,0.808,0.78,0.795,0.699,0.253,0.349,0.197,0.281,0.24,0.72,0.581,0.59,0.573,0.537,0.361,0.721,0.608,0.647,0.486
NCI-H661,,0.981,1.03,0.862,0.994,0.623,0.549,0.529,0.574,0.455,0.718,0.679,0.665,0.718,0.567,0.374,0.345,0.355,0.319,0.367
201T,1.03,1.03,1.02,1.02,0.981,1.07,1.06,0.937,1.04,0.927,0.737,0.736,0.762,0.586,0.584,0.937,0.97,0.857,0.904,0.809
PC-3 [JPC-3],0.968,0.983,0.824,0.985,1.07,0.985,0.907,0.883,0.967,1.06,0.718,0.792,0.73,0.802,0.746,0.877,0.855,0.854,0.814,0.922
CAL-12T,0.665,0.592,0.778,0.611,0.612,0.779,0.838,0.799,0.771,0.841,0.736,0.746,0.686,0.849,0.527,0.375,0.342,0.311,0.308,0.292
NCI-H1437,0.898,0.949,0.992,0.813,0.959,0.948,1.07,1.05,1.01,1.03,1.02,0.917,0.983,0.877,0.942,0.431,0.443,0.37,0.387,0.4
Calu-6,0.758,0.749,0.762,0.814,0.859,0.951,0.877,0.989,0.911,0.885,,,,,,,,,,
IA-LM,0.937,0.797,0.906,0.926,1.04,0.666,0.645,0.773,0.767,0.544,,,,,,,,,,
NCI-H1650,1.14,0.956,1.03,0.977,0.749,,,,,,0.756,0.686,0.612,0.714,0.524,0.352,0.498,0.421,0.405,0.343
NCI-H1703,0.65,0.591,0.715,0.341,0.138,0.625,0.781,0.701,0.61,0.192,,,,,,,,,,
NCI-H1792,0.68,0.97,0.954,0.786,0.915,0.548,0.493,0.5,0.372,0.424,0.77,0.729,0.709,0.721,0.58,,,,,
NCI-H2170,1.2,1.15,0.934,1.11,0.922,,,,,,0.739,0.75,0.465,0.69,0.676,0.749,0.8,0.586,0.679,0.609
ChaGo-K-1,1.18,1.1,1.1,,1.11,,,,,,0.584,0.582,0.609,0.588,0.527,0.235,0.25,0.217,0.22,0.213
